The test system of data set [1] is retinas of diabetic mice. The data set is described as follows: Analysis of ROS concentration in retinas of diabetic mouse model (DHE). The data set is classed as in vivo, C57BL/6 mice. To be noted: intravitreal 2 μL of 2 mM midazolam, 2 μM Trolox or 500 mM NAC (FIGS. 12, 13). The protocol:
6-week-old male C57BL/6 mice (DBL, EumSeong, Korea) were administered with streptozotocin (Sigma-Aldrich) dissolved in a 100 mM citrate buffer (pH 4.5) through intraperitoneal injection in an amount of 150 mg each per kg of mouse weight to give diabetic mouse models. In the diabetic mouse models, the blood glucose level was 19 mM or more when not fasting, and polyuria and diabetes, considered signs of diabetes, were observed. […]
Normal mice (Normal), midazolam-administered normal mice (Midazolam), diabetic mice (Diabetic), midazolam-administered diabetic mice (Diabetic+Midazolam), Trolox-administered diabetic mice (Diabetic+Trolox) and NAC-administered diabetic mice (Diabetic+NAC) were subjected to cervical dislocation and the eyeballs were extracted therefrom and rapidly frozen with an OCT compound (Sakura Finetek, Torrance, Calif., USA). Using a microtome-cryostat (Leica Biosystems, Wetzlar, Germany), 10 μm-thick non-fixed cryosections were prepared, treated with a solution of 5 μM dihydroethidium (DHE, Invitrogen-Molecular Probes) in PBS, stained for 30 min, and measured using confocal microscopy. The results of ROS concentrations quantitatively analyzed using the fluorescence intensity of the cryosections are shown in FIGS. 12 and 13.

Data set [2] can be described thus: Body weight and blood glucose monitoring in diabetic mice. The data set is classed as in vivo, C57BL/6 mice. The method, then:
FIGS. 19A and 19B show the preventive effects of midazolam against hyperglycemia-induced endothelial apoptosis in the aortic endothelium of diabetic mice. Six-week-old male C57BL/6 mice were administered with streptozotocin (150 mg/kg body weight) to give diabetic mouse models. One week after streptozotocin injection, diabetic mice were administered midazolam (10 mg/kg) by intraperitoneal injection daily for 14 days. The body weight of mice were measure in normal (20.7±0.1 g), diabetic (17.1±0.1 g), and midazolam supplemented diabetic mice (17.0±0.3 g). Blood glucose levels were also monitored in normal (124.0±12.0 mg/dL), diabetic (509.0±1.0 mg/dL), and midazolam supplemented diabetic mice (515.7±3.4 mg/dL). Aorta of mice were dissected and cut longitudinally to expose the endothelium. And then aortic segments were fixed for 15 min with 1% (w/v) paraformaldehyde in PBS, followed by treatment for 30 min with 70% (v/v) ethanol on ice. Apoptotic cells were stained by terminal deoxynucleotidyl transferase dUTP nick end labeling (TUNEL) with nuclear counterstaining with DAPI and visualized by confocal microscopy in the aortic endothelium. Representative images of endothelial apoptosis in aorta are shown in additional FIG. 19A. Scale bar, 100 μm. The results of endothelial apoptosis quantitatively analyzed by measurement of TUNEL staining in the aorta are shown in additional FIG. 19B (n=4 for normal and diabetic, n=6 for diabetic+Midazolam).
FIGS. 20A and 20B show the preventive effects of midazolam against hyperglycemia-induced renal vascular leakage in diabetic mice. Six-week-old male C57BL/6 mice were administered with streptozotocin (150 mg/kg body weight) to give diabetic mouse models. Two weeks after streptozotocin injection, diabetic mice were administered 10 mg/kg midazolam by intraperitoneal injection daily for 2 days, and vascular leakage was investigated. The body weight of mice were measure in normal (19.9±0.3 g), diabetic (17.7±0.3 g), and midazolam supplemented diabetic mice (17.7±0.3 g). Blood glucose levels were also monitored in normal (123.5±6.5 mg/dL), diabetic (505.0±89.0 mg/dL), and midazolam supplemented diabetic mice (500.3±63.3 mg/dL). The mice were anesthetized with 3% isoflurane, and 1.25 mg of FITC-dextran was injected into the right ventricle of each mouse and allowed to circulate for 5 min. […] The results of vascular leakage quantitatively analyzed by measuring the fluorescence intensity of FITC-dextran in the kidneys are shown in additional FIG. 20B. […]
FIGS. 21A and 21B show the preventive effects of midazolam against hyperglycemia-induced pulmonary vascular leakage in diabetic mice. […] Blood glucose levels were also monitored in normal (123.5±6.5 mg/dL), diabetic (505.0±89.0 mg/dL), and midazolam supplemented diabetic mice (500.3±63.3 mg/dL). […]

As for `Cc1ncc2n1-c1ccc(Cl)cc1C(c1ccccc1F)=NC2` [midazolam], the “ROS concentration in retina compared to normal mice” value in data set [1] is “an increase in ROS concentration was suppressed”. The body weight in data set [2] (Test Example 15: midazolam supplemented diabetic mice, 10 mg/kg intraperitoneal daily for 14 days) worked out at 17.0 ± 0.3 g; in data set [2] (Test Example 16: midazolam supplemented diabetic mice, 10 mg/kg intraperitoneal daily for 2 days) it was 17.7 ± 0.3 g; in data set [2] (Test Example 17: midazolam supplemented diabetic mice, 10 mg/kg intraperitoneal daily for 2 days), 17.6 ± 0.3 g. This compound also gave a weight of mice in data set [2] (Test Example 18: midazolam supplemented diabetic mice, 10 mg/kg intraperitoneal daily for 14 days, B16F10 cells) of 16.2 ± 0.5 g.

The values are drawn from patent US11020405B2, “Method for prevention or treatment of diabetic complications” (KANGWON NATIONAL UNIVERSITY UNIVERSITY-INDUSTRY COOPERATION …, priority 2017, dated 2021).
